Source: PubChem BioAssay AID2060623 (Molecular Pharmacology Branch, DTP, NCI, 2025)

Test system: 227483-062-R1-J1-PDC complex spheroids with HUVEC/MSC, viability
Assay: Anticancer human tumor 227483-062-R1-J1-PDC patient-derived pancreatic carcinoma cell line growth inhibition [CLK]
Conditions: for IC50: curve of first compound; for viability, T/C: stronger effect = lower value
In short: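 Multi-cell-type spheroids combined patient-derived tumor cells with HUVEC endothelial cells and human mesenchymal stem cells. Paired agents were dosed in half-log steps down from about clinical Cmax, or from 10 microM where Cmax was unknown.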
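Note: spheroids exposed to compounds for seven days before readout.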
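Throughout, for viability, T/C: percent of DMSO vehicle control luminescence as 100% viability.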

## COc1ccc([C@@H](O)c2cc(-c3ncnc4cc(N5CCOCC5)ccc34)c(F)cc2Cl)nn1 + CNC(=O)c1ccc(Nc2nc(OC3CCCC3)c3c(-c4ccc5nc(C)oc5c4)c[nH]c3n2)c(OC)c1
Second compound 0.0316 µM
  IC50: > 10000 nM
Second compound 0.1 µM
  IC50: > 10000 nM
Second compound 0.316 µM
  IC50: > 10000 nM
Second compound 1 µM
  IC50: 750 nM
Second compound 3.16 µM
  IC50: < 31.6 nM
Second compound 10 µM
  IC50: < 31.6 nM
Second compound 0.0316 µM, first compound 0.0316 µM
  viability, T/C: 94.6%
Second compound 0.0316 µM, first compound 0.1 µM
  viability, T/C: 85.9%
Second compound 0.0316 µM, first compound 0.316 µM
  viability, T/C: 108%
Second compound 0.0316 µM, first compound 1 µM
  viability, T/C: 94.5%
Second compound 0.0316 µM, first compound 3.16 µM
  viability, T/C: 73.1%
Second compound 0.0316 µM, first compound 10 µM
  viability, T/C: 59.8%
Second compound 0.1 µM, first compound 0.0316 µM
  viability, T/C: 98.6%
Second compound 0.1 µM, first compound 0.1 µM
  viability, T/C: 86.8%
Second compound 0.1 µM, first compound 0.316 µM
  viability, T/C: 76.7%
Second compound 0.1 µM, first compound 1 µM
  viability, T/C: 75.5%
Second compound 0.1 µM, first compound 3.16 µM
  viability, T/C: 58.5%
Second compound 0.1 µM, first compound 10 µM
  viability, T/C: 53.5%
Second compound 0.316 µM, first compound 0.0316 µM
  viability, T/C: 86.2%
Second compound 0.316 µM, first compound 0.1 µM
  viability, T/C: 83.1%
Second compound 0.316 µM, first compound 0.316 µM
  viability, T/C: 72.1%
Second compound 0.316 µM, first compound 1 µM
  viability, T/C: 56.5%
Second compound 0.316 µM, first compound 3.16 µM
  viability, T/C: 63.5%
Second compound 0.316 µM, first compound 10 µM
  viability, T/C: 53.7%
Second compound 1 µM, first compound 0.0316 µM
  viability, T/C: 68.1%
Second compound 1 µM, first compound 0.1 µM
  viability, T/C: 64.3%
Second compound 1 µM, first compound 0.316 µM
  viability, T/C: 62.8%
Second compound 1 µM, first compound 1 µM
  viability, T/C: 42.5%
Second compound 1 µM, first compound 3.16 µM
  viability, T/C: 48%
Second compound 1 µM, first compound 10 µM
  viability, T/C: 46.7%
Second compound 3.16 µM, first compound 0.0316 µM
  viability, T/C: 42%
Second compound 3.16 µM, first compound 0.1 µM
  viability, T/C: 41.5%
Second compound 3.16 µM, first compound 0.316 µM
  viability, T/C: 42.1%
Second compound 3.16 µM, first compound 1 µM
  viability, T/C: 45.7%
Second compound 3.16 µM, first compound 3.16 µM
  viability, T/C: 48.3%
Second compound 3.16 µM, first compound 10 µM
  viability, T/C: 26.2%
Second compound 10 µM, first compound 0.0316 µM
  viability, T/C: 36.1%
Second compound 10 µM, first compound 0.1 µM
  viability, T/C: 38.2%
Second compound 10 µM, first compound 0.316 µM
  viability, T/C: 31.9%
Second compound 10 µM, first compound 1 µM
  viability, T/C: 39%
Second compound 10 µM, first compound 3.16 µM
  viability, T/C: 38.6%
Second compound 10 µM, first compound 10 µM
  viability, T/C: 27.9%
